Here are results for two molecules from ChEMBL document CHEMBL4699511, “Cedrol, a Sesquiterpene Alcohol, Enhances the Anticancer Efficacy of Temozolomide in Attenuating Drug Resistance via Regulation of the DNA Damage Response and MGMT Expression” (J Nat Prod, 2020).

Structures are written as SMILES. Calls of active or inactive are those of the source. The rule behind the calls is not given here.

The subject of series [1] is DBTRG-05MG. As to the kind of experiment: Induction of DNA damage in human DBTRG-05MG cells assessed as Chk1 phosphorylation at ser345 residues at 206 uM after 48 hrs by Western blot analysis (reference value: 1). Format: functional. On the technique in general: In western blotting, separated proteins are transferred to a membrane and probed.
In series [2] the test system is DBTRG-05MG. As to the kind of experiment: Inhibition of ERK phosphorylation at Tyr204 residues in human DBTRG-05MG cells at 206 uM after 48 hrs by Western blot analysis (reference value: 1). Format: cell-based.
The test system of series [3] is RG2. Briefly: Inhibition of p38 phosphorylation at Tyr182 residues in rat RG2 cells at 206 uM after 48 hrs by Western blot analysis (reference value: 1). Format: cell-based.
The test system of series [4] is RG2. As to the kind of experiment: Induction of apoptosis in rat RG2 cells assessed as phosphorylated PARP expression at 206 uM after 48 hrs by Western blot analysis (reference value: 1). Type of series: functional.
Series [5] can be described thus: Effect on JNK expression in human DBTRG-05MG cells at 206 uM after 48 hrs by Western blot analysis (reference value: 1). Format: functional.
Series [6] relates to DBTRG-05MG. As to the kind of experiment: Inhibition of JNK phosphorylation at Thr183/Tyr185 residues in human DBTRG-05MG cells at 112.4uM after 48 hrs in presence of TMZ by Western blot analysis (reference value: 1). Type of series: cell-based.
Series [7] relates to DBTRG-05MG. Briefly: Induction of cell cycle arrest in human DBTRG-05MG cells assessed as p21 expression at 112.4 uM after 48 hrs by Western blot analysis (reference value: 1). Type of series: functional.
Series [8] has as its system RG2. Briefly: Induction of cell cycle arrest in rat RG2 cells assessed as CyclinB1 expression at 112.4 uM after 48 hrs in presence of TMZ by Western blot analysis (reference value: 1). Format: functional.
Series [9] is described as follows: Effect on AKT expression in rat RG2 cells at 112.4uM after 48 hrs in presence of TMZ by Western blot analysis (reference value: 1). Type of series: functional.
The nature of series [10]: Effect on ERK expression in rat RG2 cells at 112.4uM after 48 hrs in presence of TMZ by Western blot analysis (reference value: 1). Type of series: functional.
Series [11] deals with DBTRG-05MG. Briefly: Induction of apoptosis in human DBTRG-05MG cells assessed as cleaved caspace-9 expression at 112.4 uM after 48 hrs in presence of TMZ by Western blot analysis (reference value: 1). Format: functional.
A short description of series [12]: Synergistic cytotoxicity against rat CTX TNA2 cells assessed as synergistic effect index at 89.9 uM after 48 hrs in presence of 515.1 uM TMZ by MTT assay. Particulars: ctx tna2, 48 h. Type of series: cell-based. (In general: Formazan colour is commonly taken as a measure of viable cells.)
Series [13] concerns DBTRG-05MG. As to the kind of experiment: Synergistic cytotoxicity against human DBTRG-05MG cells assessed as synergistic effect index at 134.9 uM after 48 hrs in presence of 206 uM TMZ by MTT assay. Format: functional.
Series [14] deals with DBTRG-05MG. As to the kind of experiment: Induction of apoptosis in human DBTRG-05MG cells assessed as phosphorylated caspace-9 expression at 112.4 uM after 48 hrs by Western blot analysis (reference value: 1). Format: functional.
For series [15], the system named is DBTRG-05MG. As to the kind of experiment: Induction of apoptosis in human DBTRG-05MG cells assessed as cleaved PARP expression at 112.4 uM after 48 hrs in presence of TMZ by Western blot analysis (reference value: 1). Format: functional.
The test system of series [16] is DBTRG-05MG. As to the kind of experiment: Synergistic cytotoxicity against human DBTRG-05MG cells assessed as synergistic effect index at 89.9 uM after 48 hrs in presence of 515.1 uM TMZ by MTT assay. Type of series: functional.
Series [17] is described as follows: Synergistic cytotoxicity against rat CTX TNA2 cells assessed as combination index at 89.9 uM after 48 hrs in presence of 515.1 uM TMZ by MTT assay. Format: cell-based. Particulars: ctx tna2, 48 h.
The subject of series [18] is RG2. As to the kind of experiment: Induction of DNA damage in rat RG2 cells assessed as Chk1 phosphorylation at ser345 at 112.4 uM after 48 hrs by Western blot analysis (reference value: 1). Format: functional.
In series [19] the test system is RG2. Briefly: Induction of DNA damage in rat RG2 cells assessed as ATM phosphorylation at ser1981 residues at 112.4 uM after 48 hrs by Western blot analysis (reference value: 1). Format: functional.
The nature of series [20]: Synergistic cytotoxicity against rat CTX TNA2 cells assessed as synergistic effect index at 134.9 uM after 48 hrs in presence of 103 uM TMZ by MTT assay. Particulars: ctx tna2, 48 h. Format: cell-based.
Series [21] in a line: Synergistic cytotoxicity against rat CTX TNA2 cells assessed as combination index at 134.9 uM after 48 hrs in presence of 515.1 uM TMZ by MTT assay. Type of series: cell-based. Particulars: ctx tna2, 48 h.
Series [22] has as its system DBTRG-05MG. As to the kind of experiment: Induction of apoptosis in human DBTRG-05MG cells assessed as increase in DNA fragmentation at 112.4 uM after 48 hrs in presence of TMZ by TUNEL assay. Type of series: functional, cell-based.
Series [23] can be described thus: Effect on p38 expression in human DBTRG-05MG cells at 112.4uM after 48 hrs in presence of TMZ by Western blot analysis (reference value: 1). Format: functional.
The test system of series [24] is RG2. Briefly: Induction of cell cycle arrest in rat RG2 cells assessed as accumulation at S phase at 112.4 uM after 48 hrs in presence of TMZ by propidium iodide staining based flow cytometric analysis (reference value: 20.15 +/- 2.44%). Type of series: functional. (In general: Flow cytometry measures light scatter and fluorescence of single cells or particles in a stream.)

A short description of series [25]: Synergistic cytotoxicity against rat CTX TNA2 cells assessed as synergistic effect index at 112.4 uM after 48 hrs in presence of 206 uM TMZ by MTT assay. Type of series: cell-based. Particulars: ctx tna2, 48 h.
Series [26] deals with RG2. As to the kind of experiment: Induction of DNA damage in rat RG2 cells assessed as H2A.X phosphorylation at ser139 at 112.4 uM after 48 hrs by Western blot analysis (reference value: 1). Format: functional.
Series [27] can be described thus: Synergistic cytotoxicity against rat CTX TNA2 cells assessed as combination index at 112.4 uM after 48 hrs in presence of 206 uM TMZ by MTT assay. Type of series: cell-based. Particulars: ctx tna2, 48 h.
The nature of series [28]: Inhibition of TMZ-induced drug resistance in rat RG2 cells assessed as MDR1 expression at 112.4 uM after 48 hrs by Western blot analysis (reference value: 5.3). Format: functional.
For series [29], the system named is DBTRG-05MG. As to the kind of experiment: Synergistic cytotoxicity against human DBTRG-05MG cells assessed as synergistic effect index at 112.4 uM after 48 hrs in presence of 309 uM TMZ by MTT assay. Format: functional.
The target of series [30] is MAP kinase p38 (Homo sapiens) (UniProt O15264+Q15759+Q16539+P53778). Briefly: Inhibition of p38 phosphorylation at Tyr182 residues in human DBTRG-05MG cells at 112.4uM after 48 hrs by Western blot analysis (reference value: 1). Type of series: cell-based.
In series [31] the test system is RG2. As to the kind of experiment: Synergistic cytotoxicity against rat RG2 cells assessed as combination index at 112.4 uM after 48 hrs in presence of 412.1 uM TMZ by MTT assay. Format: functional.
Series [32] relates to RG2. As to the kind of experiment: Synergistic cytotoxicity against rat RG2 cells assessed as synergistic effect index at 89.9 uM after 48 hrs in presence of 515.1 uM TMZ by MTT assay. Format: functional.
Series [33] relates to DBTRG-05MG. Briefly: Induction of cell cycle arrest in human DBTRG-05MG cells assessed as accumulation at G2/M phase at 112.4 uM after 6 hrs by propidium iodide staining based flow cytometric analysis (reference value: 30.08 +/- 0.1%). Type of series: functional.
Series [34] is described as follows: Effect of CD133 expression in rat RG2 cells at 112.4 uM after 48 hrs by Western blot analysis. Format: functional.

Take `Cn1nnc2c(C(N)=O)ncn2c1=O` [TEMOZOLOMIDE]: the “fold change (FC)” value came to 1 in the series with DBTRG-05MG [1]; 0.8 with DBTRG-05MG [2]; 1.3 in the series with RG2 [3]; 0.4 in the series with RG2 [4]; 0.7 in [5].

Take `C[C@@H]1CC[C@H]2C(C)(C)[C@H]3C[C@@]12CC[C@@]3(C)O` [CEDROL]: the fold change (FC) was 0.8 in the series on DBTRG-05MG [6]; 1.1 in the series on DBTRG-05MG [7]; 0.7 in the series on RG2 [8]; 0.4 in series [9]; 0.7 in [10]; 3.4 in the series with DBTRG-05MG [11]. Moreover, the “fold change (FC)” value turned out to be 0.8 in the series with DBTRG-05MG [14]; 1.9 with DBTRG-05MG [15]; 1.1 in the series on RG2 [18]; 1 in the series with RG2 [19]; 0.8 in [23]; 1 in the series with RG2 [26]. Also, the “fold change (FC)” value in series [28] is 2; in [30] it was 1; in series [34] it was 1. Also, the Activity_index in series [12] was 0.68; in the series with DBTRG-05MG [13], 0.88; with DBTRG-05MG [16], 0.77; in series [20] it was 0.28; in [25] it was 0.4; in the series on DBTRG-05MG [29], 0.87. The Activity_index in the series with RG2 [32] was found to be 0.69. Also, the CI was 0.89 in [17], 0.88 in series [21], 1.17 in series [27] and 0.99 in the series with RG2 [31]. Besides, in the series on DBTRG-05MG [22], the outcome was Active. Also, the Activity with RG2 [24] was 20.29%; in the series with DBTRG-05MG [33], 30.35%.
